# Assay results published in PubChem BioAssay AID192 (DTP/NCI, 2004).
# Values joined by “and” are separate entries in the source; they are usually repeats but may differ in a detail not shown here. Equal entries are not always repeated. Toxic doses and inconclusive results are not listed. Peptide text beside a SMILES is read from it. * marks the point of attachment. Trt = c1ccc(C(c2ccccc2)(c2ccccc2)*)cc1; Cbz = O=C(OCc1ccccc1)*; Bn = c1ccc(C*)cc1; βAla = NCCC(=O)O
# Tested on: BDF1 mice, B16 melanoma ip, median survival T/C
# Assay: NCI In Vivo Anticancer Drug Screen. Data for tumor model B16 Melanoma (intraperitoneal) in B6D2F1 (BDF1) mice
# Conditions: endpoint: median survival time, higher = longer survival
# Method in brief: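 Tumor-bearing mice received test compound or vehicle. Survival or tumor size was then measured in both groups. The treated-group figure was divided by the control-group figure.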
# [1] = dose: 50.0 mg/kg/injection, schedule: Q04DX003 (ip), vehicle: saline
# [2] = dose: 100.0 mg/kg/injection, schedule: Q04DX003 (ip), vehicle: saline
# [3] = dose: 200.0 mg/kg/injection, schedule: Q04DX003 (ip), vehicle: saline
# [4] = dose: 12.5 mg/kg/injection, schedule: Q01DX009 (ip), vehicle: saline
# [5] = dose: 25.0 mg/kg/injection, schedule: Q01DX009 (ip), vehicle: saline
# [6] = dose: 50.0 mg/kg/injection, schedule: Q01DX009 (ip), vehicle: saline
# [7] = dose: 100.0 mg/kg/injection, schedule: Q01DX009 (ip), vehicle: saline
# [8] = dose: 12.5 mg/kg/injection, schedule: Q01DX009 (ip), vehicle: Klucel (hydroxypropylcellulose) (HPC)
# [9] = dose: 25.0 mg/kg/injection, schedule: Q01DX009 (ip), vehicle: Klucel (hydroxypropylcellulose) (HPC)
# [10] = dose: 50.0 mg/kg/injection, schedule: Q01DX009 (ip), vehicle: Klucel (hydroxypropylcellulose) (HPC)
# [11] = dose: 400.0 mg/kg/injection, schedule: Q01DX009 (ip), vehicle: Klucel (hydroxypropylcellulose) (HPC)
# [12] = dose: 100.0 mg/kg/injection, schedule: Q01DX009 (ip), vehicle: Klucel (hydroxypropylcellulose) (HPC)
# [13] = dose: 200.0 mg/kg/injection, schedule: Q01DX009 (ip), vehicle: Klucel (hydroxypropylcellulose) (HPC)
# [14] = dose: 2.0 mg/kg/injection, schedule: Q01DX009 (ip), vehicle: saline with Tween-80
# [15] = dose: 12.5 mg/kg/injection, schedule: Q01DX009 (ip), vehicle: saline with Tween-80
# [16] = dose: 25.0 mg/kg/injection, schedule: Q01DX009 (ip), vehicle: saline with Tween-80
# [17] = dose: 50.0 mg/kg/injection, schedule: Q01DX009 (ip), vehicle: saline with Tween-80
# [18] = dose: 100.0 mg/kg/injection, schedule: Q01DX009 (ip), vehicle: saline with Tween-80
# [19] = dose: 200.0 mg/kg/injection, schedule: Q01DX009 (ip), vehicle: saline with Tween-80
# [20] = dose: 200.0 mg/kg/injection, schedule: Q01DX009 (ip), vehicle: saline
# [21] = dose: 400.0 mg/kg/injection, schedule: Q01DX009 (ip), vehicle: saline with Tween-80
structure (smiles),measurement,setting,value
ClC(Cl)(Cl)c1ccc(C(Cl)(Cl)Cl)cc1,T/C,[1],102 % of control
same,T/C,[2],95 % of control
same,T/C,[3],95 % of control
CCCCCCCCCOCCOCCOCCN,T/C,"dose: 12.5 mg/kg/injection, schedule: Q04DX003 (ip), vehicle: Klucel (hydroxypropylcellulose) (HPC)",98 % of control
same,T/C,"dose: 25.0 mg/kg/injection, schedule: Q04DX003 (ip), vehicle: Klucel (hydroxypropylcellulose) (HPC)",90 % of control
COc1cc(C(=O)OC(C)CN2CCN(C(=O)c3cc(OC)c(OC)c(OC)c3)CC2)cc(OC)c1OC (stereo unspecified),T/C,[4],116 % of control
same,T/C,[5],105 % of control
same,T/C,[6],100 % of control
same,T/C,[7],110 % of control
Cc1ccccc1NC(=O)Nc1cccc(C)c1C,T/C,"dose: 50.0 mg/kg/injection, schedule: Q04DX003 (ip), vehicle: Klucel (hydroxypropylcellulose) (HPC)",90 % of control
same,T/C,"dose: 100.0 mg/kg/injection, schedule: Q04DX003 (ip), vehicle: Klucel (hydroxypropylcellulose) (HPC)",96 % of control
same,T/C,"dose: 200.0 mg/kg/injection, schedule: Q04DX003 (ip), vehicle: Klucel (hydroxypropylcellulose) (HPC)",93 % of control
CC1C2CCC3C(O)C2(CC(O)C2(O)C1CC(O)C2(C)C)CC3(C)O (stereo unspecified),T/C,"dose: 0.25 mg/kg/injection, schedule: Q01DX009 (ip), vehicle: Klucel (hydroxypropylcellulose) (HPC)",103 % of control
same,T/C,"dose: 0.5 mg/kg/injection, schedule: Q01DX009 (ip), vehicle: Klucel (hydroxypropylcellulose) (HPC)",103 % of control
COc1cc(C)c2c(c1C=O)Oc1c(c(C)c(O)c3c1C(O)OC3=O)OC2=O (stereo unspecified),T/C,"dose: 3.12 mg/kg/injection, schedule: Q01DX009 (ip), vehicle: saline",101 % of control
same,T/C,"dose: 6.25 mg/kg/injection, schedule: Q01DX009 (ip), vehicle: saline",94 % of control
same,T/C,[4],100 % of control
same,T/C,[5],101 % of control
same,T/C,[6],87 % of control
COc1cc([NH-])c([NH-])cc1OC.[Cl][Pt+2][Cl],T/C,"dose: 10.0 mg/kg/injection, schedule: Q01DX009 (ip), vehicle: saline with Tween-80",97 % of control
same,T/C,"dose: 20.0 mg/kg/injection, schedule: Q01DX009 (ip), vehicle: saline with Tween-80",104 % of control
same,T/C,"dose: 40.0 mg/kg/injection, schedule: Q01DX009 (ip), vehicle: saline with Tween-80",103 % of control
same,T/C,"dose: 80.0 mg/kg/injection, schedule: Q01DX009 (ip), vehicle: saline with Tween-80",104 % of control
same,T/C,"dose: 160.0 mg/kg/injection, schedule: Q01DX009 (ip), vehicle: saline with Tween-80",94 % of control
CN1C2CCC1CNC2,T/C,[2],105 % of control
same,T/C,[3],105 % of control
same,T/C,"dose: 400.0 mg/kg/injection, schedule: Q04DX003 (ip), vehicle: saline",100 % of control
COC(=O)C(CSC(c1ccccc1)(c1ccccc1)c1ccccc1)NC(=O)C(CSCc1ccccc1)NC(=O)CCNC(=O)OCc1ccccc1 (stereo unspecified) ({Cbz-βAla}-Cys(Bn)-Cys(Trt)-OMe; configuration not given here),T/C,[8],86 % of control
same,T/C,[9],87 % of control and 92 % of control
same,T/C,[10],89 % of control and 120 % of control
same,T/C,[11],167 % of control
C1CC[N-]CC1.C1CC[N-]CC1.C1CC[N-]CC1.C1CC[N-]CC1.[Cl][Co][Cl],T/C,"dose: 37.5 mg/kg/injection, schedule: Q01DX009 (ip), vehicle: saline with Tween-80",103 % of control
same,T/C,"dose: 75.0 mg/kg/injection, schedule: Q01DX009 (ip), vehicle: saline with Tween-80",87 % of control
CCCCOC(OCCCC)C(C)=O,T/C,[12],96 % of control
same,T/C,[13],93 % of control
same,T/C,[11],93 % of control
CC1=CC(=O)[C@@H](O)[C@]2(C)[C@H]3[C@@]4(O)OC[C@]35[C@H]([C@@H](C)[C@H]4O)[C@@H](OC(=O)c3ccccc3)C(=O)O[C@@H]5C[C@@H]12,T/C,"dose: 0.25 mg/kg/injection, schedule: Q01DX009 (ip), vehicle: saline with Tween-80",118 % of control
same,T/C,[14],171 % of control
CCC(CC)OCCN1CCN(CCCN2c3ccccc3Sc3ccc(C(F)(F)F)cc32)CC1,T/C,"dose: 0.5 mg/kg/injection, schedule: Q01DX009 (ip), vehicle: saline with Tween-80",109 % of control
same,T/C,"dose: 1.0 mg/kg/injection, schedule: Q01DX009 (ip), vehicle: saline with Tween-80",103 % of control
O=c1[nH]c(=S)[nH]cc1Oc1ccc(I)cc1,T/C,[8],90 % of control
same,T/C,[9],86 % of control
same,T/C,[10],91 % of control
C=CCNc1nc2c(s1)CCc1cc(OC)c(OC)cc1-2,T/C,[15],104 % of control
same,T/C,[16],106 % of control
same,T/C,[17],115 % of control
same,T/C,[18],104 % of control
same,T/C,[19],104 % of control
Nc1nc(N)n2c(N)nnc2n1,T/C,[7],87 % of control
same,T/C,[20],88 % of control
COC(=O)C(Br)C(Br)c1ccccc1 (stereo unspecified),T/C,[18],90 % of control
same,T/C,[19],90 % of control
same,T/C,[21],90 % of control
CNC(=O)CCCCC(=O)NC,T/C,[17],102 % of control
same,T/C,[18],116 % of control
same,T/C,[19],124 % of control
same,T/C,[21],115 % of control
CN1CCN(C2=C(Cl)C(=O)c3ccccc3C2=O)CC1,T/C,"dose: 1.25 mg/kg/injection, schedule: Q01DX009 (ip), vehicle: saline",95 % of control
same,T/C,"dose: 2.5 mg/kg/injection, schedule: Q01DX009 (ip), vehicle: saline",88 % of control
C1=CCOCOC1,T/C,"dose: 12.5 mg/kg/injection, schedule: Q04DX003 (ip), vehicle: saline",96 % of control
same,T/C,"dose: 25.0 mg/kg/injection, schedule: Q04DX003 (ip), vehicle: saline",107 % of control
same,T/C,[1],93 % of control
CCCCNC(C)(C)C(S)c1ccc(Cl)cc1 (stereo unspecified),T/C,"dose: 6.25 mg/kg/injection, schedule: Q01DX009 (ip), vehicle: Klucel (hydroxypropylcellulose) (HPC)",102 % of control
same,T/C,[8],97 % of control
same,T/C,[9],89 % of control
O=C1c2ccccc2S(=O)c2ccccc21,T/C,[12],97 % of control
same,T/C,[13],93 % of control
CC(N)C(=O)NC(C(=O)O)C(C)O (stereo unspecified),T/C,[5],92 % of control
same,T/C,[6],100 % of control
same,T/C,[7],97 % of control
same,T/C,[20],102 % of control
same,T/C,"dose: 400.0 mg/kg/injection, schedule: Q01DX009 (ip), vehicle: saline",105 % of control
CC(C)=C(C=O)CCC(C)C,T/C,"dose: 25.0 mg/kg/injection, schedule: Q04DX003 (ip), vehicle: saline with Tween-80",100 % of control
same,T/C,"dose: 50.0 mg/kg/injection, schedule: Q04DX003 (ip), vehicle: saline with Tween-80",95 % of control
same,T/C,"dose: 100.0 mg/kg/injection, schedule: Q04DX003 (ip), vehicle: saline with Tween-80",97 % of control and 100 % of control
NC1=NC(=O)N2CC12 (stereo unspecified),T/C,[4],100 % of control
same,T/C,[5],103 % of control
same,T/C,[6],105 % of control
same,T/C,[7],103 % of control
CCC(C)c1ccc(O)c(C(C)CC)c1 (stereo unspecified),T/C,"dose: 88.0 mg/kg/injection, schedule: Q01DX009 (ip), vehicle: saline with Tween-80",123 % of control
same,T/C,"dose: 133.0 mg/kg/injection, schedule: Q01DX009 (ip), vehicle: saline with Tween-80",108 % of control
same,T/C,[19],105 % of control
same,T/C,"dose: 300.0 mg/kg/injection, schedule: Q01DX009 (ip), vehicle: saline with Tween-80",108 % of control
c1cc2c(c(CC3CO3)c1CC1CO1)OCCOCCOCCOCCO2 (stereo unspecified),T/C,"dose: 50.0 mg/kg/injection, schedule: Q01DX009 (ip), vehicle: saline + Tween-80 + alcohol",109 % of control
same,T/C,"dose: 100.0 mg/kg/injection, schedule: Q01DX009 (ip), vehicle: saline + Tween-80 + alcohol",118 % of control
C[Si]1(C)CCCSC1,T/C,[15],98 % of control
same,T/C,[16],98 % of control
same,T/C,[17],91 % of control
CC1(c2ccccc2)C(C#N)C(=O)NC(=O)C1C#N (stereo unspecified),T/C,[17],89 % of control
same,T/C,[18],89 % of control
same,T/C,[19],89 % of control
COc1ccc(CN(CCN(C)C)c2ccccn2)cc1,T/C,[8],100 % of control
same,T/C,[9],96 % of control
same,T/C,[10],93 % of control
CCN(CC)CC(C)(C)CO,T/C,[17],99 % of control
same,T/C,[18],101 % of control
same,T/C,[19],89 % of control
O=C(CN1CCCCC1)Nc1cccc(C(F)(F)F)c1,T/C,[12],87 % of control
same,T/C,[13],89 % of control
c1ccc(-c2nn(-c3ccccc3)[n+](-c3cccc4ccccc34)n2)cc1,T/C,[14],97 % of control
same,T/C,"dose: 4.0 mg/kg/injection, schedule: Q01DX009 (ip), vehicle: saline with Tween-80",93 % of control
